Measured values from PubChem BioAssay (NCI).
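Cells were grown in 96-well plates and exposed to each compound for 48 hours at five concentrations; endpoints were interpolated linearly between bracketing concentrations, or set to the highest concentration if not reached. Here, GI50 denotes the concentration required for 50% inhibition of growth. At the TGI there is no net growth.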

Tests used:
Experiment in all cases: growth of human tumour cells (NCI), 48 h
ACHN renal = test system: ACHN renal
CCRF-CEM leukemia = test system: CCRF-CEM leukemia
HCT-116 colon = test system: HCT-116 colon
HT29 colon = test system: HT29 colon
K-562 leukemia = test system: K-562 leukemia
NCI-H23 lung = test system: NCI-H23 lung
OVCAR-5 ovarian = test system: OVCAR-5 ovarian
SK-MEL-5 melanoma = test system: SK-MEL-5 melanoma
SW-620 colon = test system: SW-620 colon
MCF7 breast = test system: MCF7 breast

Structure (SMILES) | TGI (ACHN renal) [µM] | TGI (CCRF-CEM leukemia) [µM] | TGI (HCT-116 colon) [µM] | TGI (HT29 colon) [µM] | TGI (K-562 leukemia) [µM] | TGI (NCI-H23 lung) [µM] | TGI (OVCAR-5 ovarian) [µM] | TGI (SK-MEL-5 melanoma) [µM] | TGI (SW-620 colon) [µM] | GI50 (ACHN renal) [µM] | GI50 (HCT-116 colon) [µM] | GI50 (MCF7 breast) [µM] | TGI (MCF7 breast) [µM] | GI50 (NCI-H23 lung) [µM] | GI50 (OVCAR-5 ovarian) [µM] | GI50 (CCRF-CEM leukemia) [µM] | GI50 (HT29 colon) [µM] | GI50 (K-562 leukemia) [µM] | GI50 (SK-MEL-5 melanoma) [µM] | GI50 (SW-620 colon) [µM]
CCC1c2cc3n(c(=O)c2COC1O)Cc1c-3nc2ccccc2c1Cl (configuration not stated) | > 84 | > 100 | > 100 | > 100 | > 100 | > 100 | > 100 | > 100 | > 100 | – | – | – | – | – | – | – | – | – | – | –
CN(C)CC1CCCCCCCCCCCCC(CN(C)C)C1=O (configuration not stated) | 29.9 | – | 16.8 | 18.5 | – | 32 | 30.6 | 27.8 | 20.6 | – | – | – | – | – | – | – | – | – | – | –
C=CCC12CCC(=O)[C@@]1(C)CC=C(O)C2=O (some centres not stated) | > 100 | > 100 | > 100 | > 100 | – | – | > 100 | > 100 | > 100 | – | – | – | – | – | – | – | – | – | – | –
O=[N+]([O-])c1ccc(/C(Cl)=C/c2ccc(/C=C(\Cl)c3ccc([N+](=O)[O-])cc3[N+](=O)[O-])cc2)c([N+](=O)[O-])c1 | > 100 | – | > 100 | > 100 | – | > 100 | > 100 | > 100 | > 100 | – | – | – | – | – | – | – | – | – | – | –
C=C1C(=O)c2cc3c(cc2C(c2cc(OC)c(OC)c(OC)c2)[C@@H]1C(=O)O)OCO3 (some centres not stated) | > 100 | > 100 | > 100 | > 100 | > 100 | > 100 | – | > 100 | > 100 | – | – | – | – | – | – | – | – | – | – | –
N#CC(/C(=N/NC(N)=S)C(=O)Nc1cccc(Cl)c1)c1ccccc1 (configuration not stated) | > 100 | > 100 | > 100 | > 100 | > 100 | > 100 | > 100 | > 100 | > 100 | – | – | – | – | – | – | – | – | – | – | –
CC(=O)N(CCN1C(=O)c2ccccc2C1=O)CCN1C(=O)c2ccccc2C1=O | > 100 | > 100 | > 100 | – | > 100 | > 100 | – | > 100 | > 100 | – | – | – | – | – | – | – | – | – | – | –
COC(=O)c1nc(C(=O)OC)c2c([nH]c3ccccc32)c1C(=O)OC | – | > 100 | > 100 | > 100 | – | > 100 | > 100 | 95.1 | > 100 | – | – | – | – | – | – | – | – | – | – | –
O=c1nc(N2CCCC2)nc(N2CCCC2)s1 | > 100 | > 100 | > 100 | > 100 | > 100 | > 100 | > 100 | > 100 | > 100 | – | – | – | – | – | – | – | – | – | – | –
Cc1ccc(NC(=O)/C(=N\NC(N)=S)C(C#N)c2ccccc2C)cc1C (configuration not stated) | > 100 | > 100 | > 100 | > 100 | > 100 | > 100 | > 100 | > 100 | > 100 | – | – | – | – | – | – | – | – | – | – | –
O=C1NC(=O)C2C1C1C=C3c4ccccc4N(c4ccccc4)C32[C@H]2C(=O)NC(=O)[C@@H]12 (some centres not stated) | > 100 | > 100 | > 100 | > 100 | > 100 | – | > 100 | > 100 | > 100 | – | – | – | – | – | – | – | – | – | – | –
C=C1c2[nH]c3ccccc3c2CC(C(=O)O)N1C(O)c1ccc(S(=O)(=O)O)cc1 (configuration not stated) | > 100 | > 100 | > 100 | > 100 | > 100 | > 100 | > 100 | > 100 | > 100 | – | – | – | – | – | – | – | – | – | – | –
COC1=CC(=O)OC(/C=C(C)/C=C/C2=C(C)CCCC2(C)C)C1 (configuration not stated) | > 100 | > 100 | > 100 | > 100 | > 100 | > 100 | > 100 | > 100 | > 100 | – | – | – | – | – | – | – | – | – | – | –
N#Cc1ccc(C(C2C(=O)NC(=O)NC2=O)C2C(=O)NC(=O)NC2=O)cc1 | > 100 | > 100 | > 100 | > 100 | > 100 | > 100 | > 100 | > 100 | > 100 | – | – | – | – | – | – | – | – | – | – | –
NC(=S)N/N=C(\CCC(=O)Nc1ccccc1[N+](=O)[O-])CC(=O)c1ccco1 | > 100 | > 100 | > 100 | > 100 | > 100 | > 100 | > 100 | > 100 | > 100 | – | – | – | – | – | – | – | – | – | – | –
CC(C)(CN1CCCCC1)C(=O)CC(SCCN)c1ccc(Cl)cc1 (configuration not stated) | 9.85 | 5.19 | 7.61 | 5.07 | > 100 | 5.8 | 13.2 | 3.25 | 3.94 | – | – | – | – | – | – | – | – | – | – | –
CCc1cccc(CC)c1NC(=O)CC1SC(N)=NC1=O (configuration not stated) | > 100 | > 100 | > 100 | > 100 | > 100 | > 100 | > 100 | > 100 | > 100 | – | – | – | – | – | – | – | – | – | – | –

Structure (SMILES) | TGI (ACHN renal) [µM] | TGI (CCRF-CEM leukemia) [µM] | TGI (HCT-116 colon) [µM] | TGI (HT29 colon) [µM] | TGI (K-562 leukemia) [µM] | TGI (NCI-H23 lung) [µM] | TGI (OVCAR-5 ovarian) [µM] | TGI (SK-MEL-5 melanoma) [µM] | TGI (SW-620 colon) [µM] | GI50 (ACHN renal) [µM] | GI50 (HCT-116 colon) [µM] | GI50 (MCF7 breast) [µM] | TGI (MCF7 breast) [µM] | GI50 (NCI-H23 lung) [µM] | GI50 (OVCAR-5 ovarian) [µM] | GI50 (CCRF-CEM leukemia) [µM] | GI50 (HT29 colon) [µM] | GI50 (K-562 leukemia) [µM] | GI50 (SK-MEL-5 melanoma) [µM] | GI50 (SW-620 colon) [µM]
O=C(Cc1ccccc1)NN1C(=O)C(Cl)C1c1cccc([N+](=O)[O-])c1 (configuration not stated) | > 100 | 5.97 | > 84.2 | > 20 | 54 | > 92.2 | > 100 | > 100 | > 89.1 | – | – | – | – | – | – | – | – | – | – | –
Cc1ccc(NC(=O)c2nc(S(C)(=O)=O)oc2-c2ccc(F)cc2)cc1Nc1ccc2ncn(C)c(=O)c2c1 | 2.97 | – | 3.37 | – | – | 9.19 | 5.29 | – | – | 1.62 | 1.75 | 1.9 | 4.43 | 2.79 | 2.1 | – | – | – | – | –
CC(=O)SC(SC(C)=O)SC(C)=O | > 100 | 81 | > 100 | > 100 | > 100 | > 100 | > 100 | > 100 | > 100 | – | – | – | – | – | – | – | – | – | – | –
CC(=O)OCC1OC([Se-])C(OC(C)=O)C(OC(C)=O)C1OC(C)=O.N#CCC[PH+](CCC#N)CCC#N.[Au+] (configuration not stated) | 39.4 | 27.3 | > 50.2 | 39.7 | 28.3 | 23.1 | 41.9 | 15.9 | > 89 | 7.06 | 3.85 | – | – | 4.55 | 9.81 | 3.46 | 4.73 | 3.55 | 3.43 | 4.75
CC(=O)CC(=O)NC=O | > 100 | > 100 | > 100 | > 100 | > 100 | > 100 | > 100 | > 100 | > 100 | – | – | – | – | – | – | – | – | – | – | –
O=C(N/C=C/C=C/Sc1ccccc1)OCc1ccccc1 | 68.9 | > 100 | 38.1 | 31.9 | > 100 | 48.9 | 33.1 | 31.6 | 32.8 | – | – | – | – | – | – | – | – | – | – | –
CC1=NC=C(O)c2ccccc2O1 | > 100 | > 100 | > 100 | > 100 | > 100 | > 100 | – | – | > 100 | – | – | – | – | – | – | – | – | – | – | –
C#CCn1c(=O)c2cccnc2n(CC#C)c1=O | > 100 | > 100 | > 100 | > 100 | – | > 100 | > 100 | > 100 | > 100 | – | – | – | – | – | – | – | – | – | – | –
COC1=CC(=O)c2c(cc3c(c2O)-c2c(OC)cc4cc5c(c(O)c4c2OC(=O)CC(C)(O)C3)C(=O)CC(C)(O)C5)C1=O (configuration not stated) | 8.35 | 6.59 | 7.58 | 6.59 | 12.6 | 2.46 | 4.27 | 0.606 | 6.3 | – | – | – | – | – | – | – | – | – | – | –
O=C(Cc1ccccc1)N/N=C(/c1nc2ccc([N+](=O)[O-])cc2[nH]c1=O)C(O)c1ccc(C(O)/C(=N/NC(=O)Cc2ccccc2)c2nc3ccc([N+](=O)[O-])cc3[nH]c2=O)cc1 (configuration not stated) | > 100 | > 100 | > 100 | > 100 | > 100 | > 100 | > 100 | – | > 100 | – | – | – | – | – | – | – | – | – | – | –
O=C1Oc2cc3c(c4cccc1c24)OCN(c1ccccc1)C3 | > 100 | 86.2 | > 100 | > 100 | 63 | > 100 | > 100 | > 100 | > 100 | – | – | – | – | – | – | – | – | – | – | –
O=C(O)CCC1CCc2cccc(OCC(=O)O)c2C1=O (configuration not stated) | > 100 | > 100 | > 100 | > 100 | > 100 | > 100 | – | > 100 | > 100 | – | – | – | – | – | – | – | – | – | – | –
COc1ccc2[nH]c3c4c(cc(-c5ccccc5)c3c2c1)C(=O)N(c1ccccc1)C4=O | > 100 | 15.1 | > 100 | > 100 | > 100 | 98.6 | > 100 | > 100 | > 100 | – | – | – | – | – | – | – | – | – | – | –
NC1=NC2=C(CCCC2)C(c2cccs2)S1 (configuration not stated) | > 100 | > 100 | > 100 | > 100 | > 100 | > 100 | > 100 | > 100 | > 100 | – | – | – | – | – | – | – | – | – | – | –
CCCCCC#COC1CC(C)CC[C@@H]1C(C)C (some centres not stated) | > 100 | 31.9 | > 100 | > 100 | > 100 | > 100 | > 100 | > 100 | 34.1 | – | – | – | – | – | – | – | – | – | – | –
Cc1cc2c(cc1C)[n+](=O)c(C(=O)CC(=O)C(=O)Nc1ccccc1C(C)C)c(C)n2[O-] | > 100 | > 100 | > 100 | > 100 | > 100 | > 100 | > 100 | > 100 | > 100 | – | – | – | – | – | – | – | – | – | – | –
Fc1ccc(C2SCc3nc4ccccc4n32)cc1F (configuration not stated) | > 100 | 97 | > 100 | – | > 100 | 81.9 | – | 34.3 | > 100 | – | – | – | – | – | – | – | – | – | – | –
